From paper PMC9490236, “Accurate de novo design of membrane-traversing macrocycles” (Cell, 2022)
Where a SMILES comes first, the peptide text is derived from it. [ ]: non-standard residue; d: D form. dNMeI = CC[C@@H](C)[C@@H](NC)C(=O)O; NMeL = CN[C@@H](CC(C)C)C(=O)O; Sar = CNCC(=O)O

Tests used:
in vitro = settings: PAMPA, PAMPA_Papp_Avg
[1] = PAMPA
[2] = Caco-2 permeability assay (apical to basolateral); assay type: in vitro ADME, human; settings: for Papp A→B: Caco-2, Caco_Papp_Average
Method in brief: (§1)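 Apical-to-basolateral flux was determined by LC-MS of both compartments after 90 min at 37°C on an orbital shaker, with 50 μM peptide on the apical side and HBSS below. Monolayers were grown for 6 days in an accelerated Caco-2 Transwell format and verified by TEER before and after the run.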

Caco-2 cells = test: Caco-2 permeability assay (apical to basolateral); assay type: in vitro ADME, human; settings: Caco-2
Method in brief: as §1

In the case of `CC[C@@H](C)[C@H]1NC(=O)[C@@H]2CCCN2C(=O)[C@@H]([C@H](C)CC)NC(=O)CN(C)C(=O)[C@H](CC(C)C)NC(=O)[C@@H](Cc2ccccc2)NC(=O)[C@H](CC(C)C)N(C)C(=O)[C@H]2CCCN2C(=O)[C@@H](CC(C)C)NC(=O)[C@H](CC(C)C)NC(=O)[C@H]2CCCN2C1=O` [Design D11.2, DILE DPRO LEU DLEU DPRO *LEU DPHE LEU *GLY DILE PRO] (cyclo(L[Sar][dI]P[dI][dP]L[dL][dP][NMeL][dF])), the Papp (in vitro) is reported as 2.15 ×10⁻⁶ cm/s, the PAMPA_R1 [1] is reported as 1.82E-06 and the PAMPA_R3 [1] is reported as 2.50E-06. For the same molecule, the Papp A→B [2] was 2.82 ×10⁻⁶ cm/s, the Caco_R1 (Caco-2 cells) was 1.94 and the Caco_R3 (Caco-2 cells) was 2.65.
For `CC[C@@H](C)[C@H]1NC(=O)[C@H]([C@@H](C)CC)NC(=O)[C@H](CC(C)C)N(C)C(=O)[C@H]2CCCN2C(=O)[C@@H]([C@H](C)CC)NC(=O)[C@@H]([C@H](C)CC)N(C)C(=O)[C@H](CC(C)C)NC(=O)[C@H]2CCCN2C(=O)[C@@H]2CCCN2C(=O)[C@H](C(C)C)NC(=O)[C@H]2CCCN2C1=O` [Design D11.3, VAL PRO DPRO LEU *DILE DILE DPRO *LEU ILE DILE DPRO] (cyclo(I[dI][dP]VP[dP]L[dNMeI][dI][dP][NMeL])), the Papp (in vitro) was 1.48 ×10⁻⁶ cm/s, the PAMPA_R1 [1] was 1.91E-06 and the PAMPA_R3 [1] was 1.10E-06. For the same molecule, the Papp ([2]; Caco-2) was 9.11 ×10⁻⁶ cm/s, the Papp A→B [2] was 9.11 ×10⁻⁶ cm/s and the Caco_R1 (Caco-2 cells) was 7.29. For the same molecule, the Caco_R3 (Caco-2 cells) was 11.26.
